Experimental data: patent US20130289083A1, “IDO Inhibitors” (priority 2007, published 2013)
Where two headings read alike, the source gives them in different places.

How the values were obtained:
human IDO = human IDO (Homo sapiens, UniProt P14902); assay: Cell based IDO/kynurenine assay in IDO-293-T-Rex cells; details: kynurenine production, read-out: hIDO EC50
Description: 293-T-REx™ cells (Invitrogen) constitutively express a tet operator binding repressor protein and are maintained in DMEM, 10% FBS, 1× Penicillin+Streptomycin, 2 mM L-glutamine, 5 μg/mL blasticidin at 37° C. with a 5% CO2 in air atmosphere and typically split prior to confluency. Cells were passed by splitting the culture 1/10—by removing media by aspiration, washing 1× with PBS, incubating with 0.25% trypsin/EDTA until the cells detach, disbursing the cells in fresh growth media, and plating at 1/10 dilutions in fresh growth media. For long term cryopreservation, cells are detached from the plate as described above, collected by centrifugation, resuspended in freeze medium (growth medium, 10% DMSO), stored in 1.8 mL cyropreservation vials (˜2−5×10^6 cells per vial), in liquid nitrogen vapor storage tanks.
IDOl-expressing 293-T-Rex™ cell lines were generated by stable transfection of plasmid pcDNA-tetO-IDO expressing human IDO or murine IDO under the control of the doxycycline-inducible CMV-tet promoter. Transfected cells were selected in DBZ medium (DMEM, 10% FBS, 1× Penicillin+Streptomycin, 2 mM L-glutamine, 5 μg/mL blasticidin and 25 μg/ml Zeocin) at 37° C. with a 5% CO2 in air atmosphere. Individual clones were isolated by limiting dilution cloning from these populations.
[…]. The cells incubated in Neutral medium serve as negative control of the assay. The cells incubated in Induction medium and without inhibitor serve as the positive control of the assay. The incubation is carried out for 16 h at 37° C. in a cell culture incubator. 200 μL of medium are transferred to U-bottom polypropylene 96-well plates containing 25 μL of 30% TCA, incubated 30 minutes at 60° C. and centrifuged at 3400 g for 5 minutes. 150 μL of the clear supernatant is transferred to a polystyrene 96-well plate containing 50 μL of 4% (w/v) of p-dimethylaminobenzaldehyde in acetic acid, incubated for 10 min. Kynurenine concentration is determined by measuring the absorbance at 480 nm.
The conditions of the assay were as described in the examples.

[1] = molecular target: purified human IDO protein (Homo sapiens, UniProt P14902); assay: Enzymatic IDO assay (kynurenine production, absorbance 480 nm); details: enzymatic activity
[2] = 293T cell line stably expressing human IDO, values reported in ranges
[3] = hIDO IC50, recombinant human IDO, values reported in ranges

Chain of human IDO (P14902 whole entry): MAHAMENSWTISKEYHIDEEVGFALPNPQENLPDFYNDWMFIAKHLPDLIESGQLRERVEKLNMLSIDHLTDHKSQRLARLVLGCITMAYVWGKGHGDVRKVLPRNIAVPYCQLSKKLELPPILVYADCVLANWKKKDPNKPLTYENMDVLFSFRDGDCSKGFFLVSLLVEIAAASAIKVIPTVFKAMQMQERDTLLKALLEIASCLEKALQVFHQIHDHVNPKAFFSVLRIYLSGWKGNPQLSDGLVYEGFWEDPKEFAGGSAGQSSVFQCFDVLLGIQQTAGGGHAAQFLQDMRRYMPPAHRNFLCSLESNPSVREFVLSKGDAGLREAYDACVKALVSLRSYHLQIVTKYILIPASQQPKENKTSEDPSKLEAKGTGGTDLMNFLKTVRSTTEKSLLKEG
Chain of purified human IDO protein (P14902 whole entry P110S/E119G): as the sequence (P14902 whole entry) above, with P110S, E119G counted along it

Compound | EC50 (human IDO; [2]) | IC50 [1, 3] | EC50 (human IDO; Table 15, 293T cells expressing human IDO) | IC50 ([1]; hIDO IC50, Table 15, recombinant human IDO) | IC50 ([1]; read-out: hIDO IC50, recombinant human IDO, values reported in ranges)
O=C(O)Cc1cccc2sccc12 [compound 307, 2-(benzo[b]thiophen-4-yl)acetic acid] | 1000 to 10000 µM | < 20 µM | – | – | –
S=C(NCCc1csc2ccccc12)SCc1ccc2ccccc2c1 [compound 60] | 20 to 100 µM | – | – | – | 20 to 100 µM
CC1=C(CN2C(=O)c3ccccc3C2=O)C(=O)c2ccccc2C1=O [compound 464, 2-((3-methyl-1,4-dioxo-1,4-dihydronaphthalen-2-yl)methyl)isoindoline-3-dione] | 1000 to 10000 µM | 20 to 100 µM | – | – | –
NOCc1cc(Cl)ccc1-c1ccc2[nH]ccc2c1 [compound 1930, O-(5-chloro-2-(1H-indol-5-yl)benzyl)hydroxylamine] | – | – | < 10 µM | < 10 µM | –
O=C1NC(=S)S/C1=C\c1ccc2c(c1)OCO2 [compound 148, (Z)-5-(benzo[d][1,3]dioxol-5-ylmethylene)-2-thioxothiazolidin-4-one] | 100 to 1000 µM | 100 to 1000 µM | – | – | –
O=C(Cc1csc(=S)[nH]1)NCc1ccc2ccccc2c1 [compound 701, N-(Naphthalen-2-ylmethyl)-2-(2-thioxo-2,3-dihydrothiazol-4-yl)acetamide] | 100 to 1000 µM | 100 to 1000 µM | – | – | –
O=C1C=C(O)C(=O)c2nc(O)ccc21 [compound 320, 2,7-dihydroxyquinoline-5,8-dione] | 1000 to 10000 µM | < 20 µM | – | – | –

Now from value to molecule, other results behind:

EC50 (human IDO; [2]) | IC50 [1, 3] | EC50 (human IDO; Table 15, 293T cells expressing human IDO) | IC50 ([1]; hIDO IC50, Table 15, recombinant human IDO) | Compound | IC50 ([1]; read-out: hIDO IC50, recombinant human IDO, values reported in ranges)
100 to 1000 µM | 100 to 1000 µM | – | – | O=C1CSC(=S)N1Cc1c[nH]c2ccccc12 [compound 78, 3-((1H-indol-3-yl)methyl)-2-thioxothiazolidin-4-one] | –
100 to 1000 µM | 100 to 1000 µM | – | – | CN(C)c1ccc(/C=C2\CSC(=S)NC2=O)cc1 [compound 150, (Z)-5-(4-(dimethylamino)benzylidene)-2-thioxo-1,3-thiazinan-4-one] | –
20 to 100 µM | 100 to 1000 µM | – | – | S=C(NCCc1c[nH]c2ccccc12)SCCc1c[nH]c2ccccc12 [compound 30, 2-(1H-Indol-3-yl)ethyl 2-(1H-indol-3-yl)ethylcarbamodithioate] | –
100 to 1000 µM | 100 to 1000 µM | – | – | COc1cccc(CCSC(=S)NCCc2c[nH]c3ccccc23)c1 [compound 10, 3-methoxyphenethyl 2-(1H-indol-3-yl)ethylcarbamodithioate] | –
100 to 1000 µM | 100 to 1000 µM | – | – | CSC(=S)NCCCCCCc1c[nH]c2ccccc12 [compound 27, Methyl 6-(1H-indol-3-yl)hexylcarbamodithioate] | –
20 to 100 µM | 20 to 100 µM | – | – | S=C(NCCc1c[nH]c2ccccc12)SCc1ccc2c(c1)OCO2 [compound 50, Benzo[d][1,3]dioxol-5-ylmethyl 2-(1H-indol-3-yl)ethylcarbamodithioate] | –
20 to 100 µM | 100 to 1000 µM | – | – | C=CCOc1ccc(CC)c(OCC=C)c1 [compound 252, 2,4-bis(allyloxy)-1-ethylbenzene] | –
20 to 100 µM | 100 to 1000 µM | – | – | Oc1cc(O)nc(SCc2ccccc2)n1 [compound 222, 2-(benzylthio)pyrimidine-4,6-diol] | –
